± gives the expanded uncertainty stated by the source.
Assay: xn = mol fraction of the nth substance listed
Conditions: Liquid, Vibrating tube method

COC(=O)OC [dimethyl carbonate] + CCCCCC
mass density [kg/m3]
Conditions | 100 kPa | 5000 kPa | 10000 kPa | 20000 kPa | 30000 kPa | 40000 kPa
293.15 K, x1 = 0.1 | 684.2 ± 0.3 | 689.7 ± 0.3 | 694.6 ± 0.4 | 703.9 ± 0.4 | 712.2 ± 0.5 | 719.8 ± 0.6
293.15 K, x1 = 0.2 | 712 ± 0.3 | 717.6 ± 0.4 | 722.6 ± 0.4 | 732 ± 0.4 | 740.4 ± 0.5 | 748.1 ± 0.6
293.15 K, x1 = 0.3 | 742.7 ± 0.3 | 748.3 ± 1.5 | 753.3 ± 0.3 | 762.8 ± 0.4 | 771.3 ± 0.5 | 779.2 ± 0.5
293.15 K, x1 = 0.4 | 776.5 ± 0.3 | 782.1 ± 1.6 | 787.2 ± 0.4 | 796.7 ± 0.4 | 805.3 ± 0.4 | 813.2 ± 0.5
293.15 K, x1 = 0.5 | 813.8 ± 0.4 | 819.4 ± 0.4 | 824.5 ± 0.4 | 834 ± 0.4 | 842.6 ± 0.4 | 850.6 ± 0.5
293.15 K, x1 = 0.6 | 855 ± 0.4 | 860.5 ± 0.4 | 865.5 ± 0.4 | 875 ± 0.4 | 883.6 ± 0.4 | 891.5 ± 0.4
293.15 K, x1 = 0.7 | 900.5 ± 0.4 | 905.9 ± 0.8 | 910.9 ± 0.3 | 920.2 ± 0.3 | 928.7 ± 0.3 | 936.6 ± 0.4
293.15 K, x1 = 0.8 | 951.6 ± 0.4 | 956.8 ± 0.7 | 961.6 ± 0.3 | 970.7 ± 0.3 | 978.9 ± 0.3 | 986.8 ± 0.3
293.15 K, x1 = 0.9 | 1008.5 ± 0.3 | 1013.4 ± 0.3 | 1018 ± 0.3 | 1026.7 ± 0.3 | 1034.6 ± 0.3 | 1042.3 ± 0.3
293.15 K, x1 = 0.95 | 1038.4 ± 0.3 | 1043.2 ± 0.3 | 1047.6 ± 0.3 | 1056.1 ± 0.3 | 1063.9 ± 0.3 | 1071.5 ± 0.3
293.15 K, x1 = 1 | 1069.8 ± 0.3 | 1074.4 ± 0.3 | 1078.6 ± 0.3 | 1086.9 ± 0.3 | 1094.5 ± 0.3 | 1101.9 ± 0.4
298.15 K, x1 = 0.1 | 679.5 ± 0.3 | 685.1 ± 0.3 | 690.3 ± 0.3 | 699.8 ± 0.4 | 708.4 ± 0.5 | 716 ± 0.6
298.15 K, x1 = 0.2 | 707 ± 0.3 | 712.8 ± 1.1 | 718 ± 0.4 | 727.7 ± 0.4 | 736.4 ± 0.5 | 744.2 ± 0.6
298.15 K, x1 = 0.3 | 737.5 ± 0.3 | 743.3 ± 1.6 | 748.6 ± 0.4 | 758.3 ± 0.4 | 767.2 ± 0.5 | 775.1 ± 0.5
298.15 K, x1 = 0.4 | 771.1 ± 0.3 | 776.9 ± 1.8 | 782.2 ± 0.4 | 792 ± 0.4 | 800.9 ± 0.4 | 808.9 ± 0.5
298.15 K, x1 = 0.5 | 808.2 ± 0.3 | 814 ± 0.4 | 819.3 ± 0.4 | 829.1 ± 0.4 | 838 ± 0.4 | 846.1 ± 0.5
298.15 K, x1 = 0.6 | 849.2 ± 0.3 | 854.9 ± 0.3 | 860.2 ± 0.3 | 869.9 ± 0.4 | 878.8 ± 0.4 | 886.9 ± 0.4
298.15 K, x1 = 0.7 | 894.5 ± 0.3 | 900.2 ± 1.1 | 905.3 ± 0.3 | 914.9 ± 0.3 | 923.7 ± 0.3 | 931.7 ± 0.3
298.15 K, x1 = 0.8 | 945.4 ± 0.3 | 950.8 ± 0.3 | 955.8 ± 0.3 | 965.1 ± 0.3 | 973.7 ± 0.3 | 981.6 ± 0.3
298.15 K, x1 = 0.9 | 1002.1 ± 0.3 | 1007.3 ± 0.3 | 1012 ± 0.3 | 1020.8 ± 0.3 | 1029.1 ± 0.3 | 1036.9 ± 0.3
298.15 K, x1 = 0.95 | 1032 ± 0.3 | 1036.9 ± 0.3 | 1041.5 ± 0.3 | 1050.2 ± 0.3 | 1058.2 ± 0.3 | 1065.9 ± 0.3
298.15 K, x1 = 1 | 1063.2 ± 0.3 | 1068 ± 0.3 | 1072.4 ± 0.3 | 1080.8 ± 0.3 | 1088.7 ± 0.3 | 1096.2 ± 0.4
303.15 K, x1 = 0.1 | 674.6 ± 0.3 | 680.3 ± 0.3 | 685.7 ± 0.4 | 695.6 ± 0.4 | 704.3 ± 0.5 | 712.2 ± 0.6
303.15 K, x1 = 0.2 | 701.9 ± 0.3 | 707.7 ± 0.3 | 713.3 ± 0.4 | 723.3 ± 0.4 | 732.2 ± 0.5 | 740.2 ± 0.6
303.15 K, x1 = 0.3 | 732.2 ± 0.3 | 738 ± 2.1 | 743.6 ± 0.4 | 753.7 ± 0.4 | 762.7 ± 0.5 | 770.9 ± 0.5
303.15 K, x1 = 0.4 | 765.6 ± 0.3 | 771.5 ± 0.9 | 777.1 ± 0.3 | 787.2 ± 0.4 | 796.3 ± 0.4 | 804.6 ± 0.5
303.15 K, x1 = 0.5 | 802.5 ± 0.3 | 808.3 ± 0.4 | 813.9 ± 0.4 | 824.1 ± 0.4 | 833.3 ± 0.4 | 841.6 ± 0.5
303.15 K, x1 = 0.6 | 843.3 ± 0.3 | 849.5 ± 0.3 | 855 ± 0.3 | 865 ± 0.4 | 874.1 ± 0.4 | 882.3 ± 0.4
303.15 K, x1 = 0.7 | 888.5 ± 0.3 | 894.5 ± 1.9 | 899.9 ± 0.3 | 909.8 ± 0.3 | 918.7 ± 0.3 | 926.9 ± 0.3
303.15 K, x1 = 0.8 | 939.1 ± 0.3 | 944.8 ± 0.3 | 950 ± 0.3 | 959.7 ± 0.3 | 968.5 ± 0.3 | 976.5 ± 0.3
303.15 K, x1 = 0.9 | 995.7 ± 0.3 | 1000.9 ± 0.3 | 1005.9 ± 0.3 | 1015.1 ± 0.3 | 1023.6 ± 0.3 | 1031.4 ± 0.3
303.15 K, x1 = 0.95 | 1025.4 ± 0.3 | 1030.4 ± 0.3 | 1035.2 ± 0.3 | 1044.2 ± 0.3 | 1052.6 ± 0.3 | 1060.2 ± 0.3
303.15 K, x1 = 1 | 1056.5 ± 0.3 | 1061.3 ± 0.3 | 1066 ± 0.3 | 1074.7 ± 0.3 | 1082.9 ± 0.3 | 1090.4 ± 0.4
308.15 K, x1 = 0.1 | 669.8 ± 0.3 | 675.7 ± 0.3 | 681.4 ± 0.4 | 691.5 ± 0.4 | 700.6 ± 0.5 | 708.6 ± 0.6
308.15 K, x1 = 0.2 | 696.9 ± 0.3 | 703 ± 1.3 | 708.7 ± 0.4 | 719 ± 0.4 | 728.3 ± 0.5 | 736.4 ± 0.6
308.15 K, x1 = 0.3 | 727 ± 0.3 | 733.1 ± 0.8 | 738.8 ± 0.4 | 749.3 ± 0.4 | 758.7 ± 0.5 | 766.9 ± 0.5
308.15 K, x1 = 0.4 | 760.2 ± 0.3 | 766.3 ± 0.5 | 772 ± 0.3 | 782.6 ± 0.4 | 792.1 ± 0.4 | 800.4 ± 0.5
308.15 K, x1 = 0.5 | 796.9 ± 0.3 | 802.9 ± 0.4 | 808.7 ± 0.4 | 819.2 ± 0.4 | 828.8 ± 0.4 | 837.2 ± 0.5
308.15 K, x1 = 0.6 | 837.4 ± 0.3 | 843.8 ± 0.3 | 849.5 ± 0.3 | 859.9 ± 0.4 | 869.4 ± 0.4 | 877.7 ± 0.4
308.15 K, x1 = 0.7 | 882.5 ± 0.3 | 888.6 ± 1.5 | 894.2 ± 0.3 | 904.4 ± 0.3 | 913.8 ± 0.3 | 922.1 ± 0.3
308.15 K, x1 = 0.8 | 932.8 ± 0.3 | 938.7 ± 0.4 | 944.1 ± 0.3 | 954.1 ± 0.3 | 963.2 ± 0.3 | 971.5 ± 0.3
308.15 K, x1 = 0.9 | 989.2 ± 0.3 | 994.6 ± 0.3 | 999.7 ± 0.3 | 1009.3 ± 0.3 | 1018.1 ± 0.3 | 1026.1 ± 0.3
308.15 K, x1 = 0.95 | 1018.8 ± 0.3 | 1023.8 ± 0.3 | 1028.8 ± 0.3 | 1038.1 ± 0.3 | 1046.8 ± 0.3 | 1054.7 ± 0.3
308.15 K, x1 = 1 | 1049.8 ± 0.3 | 1054.6 ± 0.3 | 1059.4 ± 0.3 | 1068.5 ± 0.3 | 1077 ± 0.3 | 1084.8 ± 0.3
313.15 K, x1 = 0.1 | 664.8 ± 0.3 | 671.1 ± 0.3 | 677 ± 0.3 | 687.5 ± 0.4 | 696.7 ± 0.5 | 705 ± 0.6
313.15 K, x1 = 0.2 | 691.7 ± 0.3 | 698 ± 0.9 | 704.1 ± 0.3 | 714.7 ± 0.4 | 724.2 ± 0.5 | 732.6 ± 0.6
313.15 K, x1 = 0.3 | 721.5 ± 0.3 | 727.8 ± 2.5 | 733.9 ± 0.4 | 744.7 ± 0.4 | 754.3 ± 0.5 | 762.9 ± 0.5
313.15 K, x1 = 0.4 | 754.5 ± 0.3 | 760.9 ± 0.7 | 767 ± 0.3 | 777.9 ± 0.4 | 787.5 ± 0.4 | 796.3 ± 0.5
313.15 K, x1 = 0.5 | 791 ± 0.3 | 797.4 ± 0.3 | 803.4 ± 0.4 | 814.3 ± 0.4 | 824 ± 0.4 | 832.8 ± 0.5
313.15 K, x1 = 0.6 | 831.4 ± 0.3 | 837.6 ± 0.3 | 843.7 ± 0.3 | 854.5 ± 0.4 | 864.1 ± 0.4 | 872.9 ± 0.4
313.15 K, x1 = 0.7 | 876.3 ± 0.3 | 882.4 ± 1 | 888.3 ± 0.3 | 898.9 ± 0.3 | 908.5 ± 0.3 | 917.2 ± 0.3
313.15 K, x1 = 0.8 | 926.4 ± 0.3 | 932.2 ± 0.3 | 937.9 ± 0.3 | 948.2 ± 0.3 | 957.6 ± 0.3 | 966.1 ± 0.2
313.15 K, x1 = 0.9 | 982.5 ± 0.3 | 988 ± 0.3 | 993.4 ± 0.3 | 1003.2 ± 0.3 | 1012.2 ± 0.3 | 1020.6 ± 0.3
313.15 K, x1 = 0.95 | 1012.1 ± 0.3 | 1017.4 ± 0.3 | 1022.5 ± 0.3 | 1032.1 ± 0.3 | 1041 ± 0.3 | 1049.1 ± 0.3
313.15 K, x1 = 1 | 1043 ± 0.3 | 1048.1 ± 0.3 | 1053 ± 0.3 | 1062.3 ± 0.3 | 1071 ± 0.3 | 1079 ± 0.3

Reference: the NIST ThermoML archive (doi:10.1016/j.jct.2010.06.011)
